These results are taken from US4528294A, “Benzoyl-phenyl-piperidine derivatives” (Societe de Recherches Industrielle S.O.R.I., priority 1981, dated 1985).

One data set has as its system mouse. Description: Toxicity (LD-50 and LD-0), i.p. route in the mouse. It is filed as in vivo. As for the experimental part: (§1) The toxicity (LD-50 and LD-0) was determined by the i.p. route in the mouse according to the technique of S. T. Litchfield described in J. Pharm. Exp. Ther. 96, 99 (1949).
The test system of another data set is lymphocytes of the mouse. In words: Stimulation in vitro of mouse lymphocytes (tritium-marked thymidine incorporation). It is filed as cell-based, mouse (DBA/2). To be noted: at the optimal concentration; thymidine incorporation in 24 hours with respect to control culture; PHA and PWM. As for the experimental part: Lymphocytes (5×10^5 cells per measurement) extracted from the spleen of inbred mice (DBA/2) are incubated for 36 hours at 37° C. in an atmosphere of oxygen with 5% of CO2 in a culture medium (RPMI 1640) containing:
10% (by weight) of foetal calf serum (100 μl per measurement)
10 μl of a solution of lectins in the proportion of 5 μg/ml of phytohemaglutinine (PHA) and 40 μg/ml of Pokeweed Mitogen (PWM), and
the substance to be tested.
The activity is evaluated by measuring the radio-activity obtained by incorporation in 24 hours of 2 μCi (i.e. 7.4×10^4 becquerels) of tritium-marked thymidine, with respect to a control culture.
The results obtained are grouped together in Table II hereinbelow which gives the optimum concentration of the products in μg/ml, and where symbols +, ++ and +++ signify: […]

Data set [1] in a line: Toxicity (LD-50 and LD-0), i.p. route in the mouse. It is filed as in vivo. To be noted: in vivo, ip. As for the experimental part: as §1
A further data set has as its system delayed hypersensitivity. In words: Delayed hypersensitivity test. It is filed as in vivo. To be noted: single dose of 5 mg/kg per os, mouse, three days before sensitization. The text has this: Furthermore, the product of Example 2 (Code No. 442) was studied according to the delayed hypersensitivity test following the modus operandi described by P. H. Lagrange et al., J. Exp. Med. 139, 1529-1539 (1974).

In turn, `CC1CCN(c2ccc(N)cc2C(=O)c2ccc(Cl)c(Cl)c2)CC1` [Example 28] had an LD-0 in the data set on mouse above 800 mg/kg. Besides, in the data set on lymphocytes of the mouse, the Stimulation entry is given as “++ (stimulation of 50% to 100%)”. With `CC1CCN(c2ccc(N)cc2C(=O)c2ccccc2)CC1` [Example 27, [2-(4-methyl-1-piperidinyl)-5-aminophenyl]-phenyl-methanone], in the data set on mouse, the LD-0 is given as above 800 mg/kg. For the same compound, the Stimulation result with lymphocytes of the mouse is given as “+ (stimulation of 0 to 50%)”. In the case of `CC1CCCN(c2ccc(N)cc2C(=O)c2ccc(Cl)cc2)C1` (centres unmarked) [Example 14], the Stimulation entry in the data set on lymphocytes of the mouse is recorded as “++ (stimulation of 50% to 100%)”. Take `CC1CCN(c2ccc(N)cc2C(=O)c2ccc(F)cc2)CC1` [Example 17]: the LD-0 with mouse is reported as above 800 mg/kg. Moreover, in the data set on lymphocytes of the mouse, the Stimulation result was “+ (stimulation of 0 to 50%)”. In general, LD50 refers to the dose expected to kill half of the subjects tested. A high value points to lower toxicity. With `CC1CCN(c2ccc(Cl)cc2C(=O)c2ccc(Cl)cc2)CC1` [Example 22], the LD50 in data set [1] turned out to be 1800 mg/kg. Also, in the data set with lymphocytes of the mouse, the Stimulation entry is on record as “+ (stimulation of 0 to 50%)”. Compound `CNc1ccc(N2CCC(C)CC2)c(C(=O)c2ccc(Cl)cc2)c1` [Example 6, [2-(4-methyl-1-piperidinyl)-5-methylamino-phenyl]-(4-chlorophenyl)methanone] gave an LD-0 in the data set with mouse above 800 mg/kg. Further, the Stimulation entry with lymphocytes of the mouse is “+ (stimulation of 0 to 50%)”. Turning to `CC1CCN(c2ccccc2C(=O)c2ccc(Cl)cc2)CC1` [Example 21], in data set [1], the 50% lethal dose (LD50) came out at 1800 mg/kg. `Cc1ccc(C(=O)c2cc(N)ccc2N2CCC(C)CC2)c(C)c1` [Example 16] yielded an LD50 in data set [1] of 750 mg/kg. For the same compound, in the data set on lymphocytes of the mouse, the Stimulation entry is recorded as “++ (stimulation of 50% to 100%)”. Take `CCOC(=O)Nc1ccc(N2CCC(C)CC2)c(C(=O)c2ccc(Cl)cc2)c1` [Example 3, [2-(4-methyl-1-piperidinyl)-5-(N-ethoxycarbonyl-amino)-phenyl]-(4-chlorophenyl)-methanone]: the LD-0 in the data set with mouse is above 800 mg/kg. In addition, the Stimulation result with lymphocytes of the mouse is “++ (stimulation of 50% to 100%)”. `CC1CCN(c2ccc(N)cc2C(=O)c2ccc(Br)cc2)CC1` [Example 30] had an LD-0 with mouse above 800 mg/kg. Consider `COc1ccc(C(=O)c2ccccc2N2CCC(C)CC2)cc1` [Example 24], for which the LD-0 in the data set with mouse was above 800 mg/kg. The Stimulation entry with lymphocytes of the mouse is “+ (stimulation of 0 to 50%)”. The compound `Cc1cc(C(=O)c2cc(N)ccc2N2CCC(C)CC2)cc(C)c1C` [Example 29] gave an LD-0 in the data set with mouse above 800 mg/kg. The Stimulation entry in the data set with lymphocytes of the mouse is on record as “+ (stimulation of 0 to 50%)”.

In the data set with mouse, `Nc1ccc(N2CCCCC2)c(C(=O)c2ccc(Cl)cc2)c1` [Example 12] came in with an LD-0 above 800 mg/kg. The Stimulation entry in the data set with lymphocytes of the mouse is listed as “+ (stimulation of 0 to 50%)”. As to `Cc1ccc(C(=O)c2cc(N)ccc2N2CCC(C)CC2)cc1` [Example 15], the LD-0 with mouse is recorded as above 800 mg/kg. Further, in the data set with lymphocytes of the mouse, the Stimulation result is listed as “++ (stimulation of 50% to 100%)”. With `CC1CC(C)CN(c2ccc(N)cc2C(=O)c2ccc(Cl)cc2)C1` (centres unmarked) [Example 19], the LD-0 with mouse is given as above 800 mg/kg. In addition, the Stimulation result in the data set with lymphocytes of the mouse is “++ (stimulation of 50% to 100%)”. With `CC1CCN(c2ccc(N)cc2C(=O)c2ccccc2Cl)CC1` [Example 8], the LD-0 in the data set on mouse was above 800 mg/kg. The Stimulation result with lymphocytes of the mouse is “+ (stimulation of 0 to 50%)”.

`CC1CCN(c2ccccc2C(=O)c2ccccc2)CC1` [Example 4, [2-(4-methyl-1-piperidinyl)-phenyl]-phenyl-methanone]: the LD-0 in the data set with mouse is above 800 mg/kg. On to `COc1ccc(C(=O)c2cc(N)ccc2N2CCC(C)CC2)cc1OC` [Example 9], for which the LD-0 in the data set on mouse is reported as above 800 mg/kg. In addition, the Stimulation entry in the data set on lymphocytes of the mouse is “+ (stimulation of 0 to 50%)”. Consider `CC1CCN(c2ccc(N)cc2C(=O)c2ccc(Cl)cc2)CC1` [Example 2, [2-(4-methyl-1-piperidinyl)-5-aminophenyl]-(4-chlorophenyl)-methanone], for which the LD50 in data set [1] was found to be 1300 mg/kg. Further, the Stimulation entry with lymphocytes of the mouse was “+++ (stimulation greater than 100%)”. Moreover, the “reduction of the delayed hypersensitivity” value with delayed hypersensitivity is given as “reduction by half”. As to `COc1ccc(C(=O)c2cc(N)ccc2N2CCC(C)CC2)cc1` [Example 23], the LD-0 with mouse is reported as above 800 mg/kg. In addition, the Stimulation entry with lymphocytes of the mouse was “++ (stimulation of 50% to 100%)”. For `CC(C)(C)C1CCN(c2ccc(N)cc2C(=O)c2ccc(Cl)cc2)CC1` [Example 31], in the data set with mouse, the LD-0 is recorded as above 800 mg/kg. The compound `CC1CCN(c2ccc(N(C)C)cc2C(=O)c2ccc(Cl)cc2)CC1` [Example 5] returned an LD-0 with mouse above 800 mg/kg. Moreover, the Stimulation entry with lymphocytes of the mouse is recorded as “+ (stimulation of 0 to 50%)”. The like results for `CC1CCN(c2ccc([N+](=O)[O-])cc2C(=O)c2ccc(Cl)cc2)CC1` [Example 1, [2-(4-methyl-1-piperidinyl)-5-nitrophenyl]-(4-chlorophenyl)-methanone] were, in that order, above 800 mg/kg and “++ (stimulation of 50% to 100%)”. `CC1CCCCN1c1ccc(N)cc1C(=O)c1ccc(Cl)cc1` (centres unmarked) [Example 20] had an LD-0 in the data set on mouse above 800 mg/kg. Moreover, in the data set with lymphocytes of the mouse, the Stimulation result is recorded as “+++ (stimulation greater than 100%)”.
